Test results taken from article PMC7866122, “Development of MTH1-Binding Nucleotide Analogs Based on 7,8-Dihalogenated 7-Deaza-dG Derivatives” (International Journal of Molecular Sciences, 2021).
“Also recorded” adds a separate entry of the source. Like-named read-outs stand apart in the source and are kept apart here.

Experiments:
[1] = target: T1, MTH1 (Homo sapiens, UniProt P36639); assay: Hydrolysis of triphosphate derivatives by MTH1 (HPLC time course); format: biochemical; conditions: 50 μM dNTP, 5 nM MTH1, 37 °C, various times
Experimental: Since the shapes of synthesized triphosphate derivatives were similar to 8-oxo-dGTP, we investigated whether these triphosphate derivatives are hydrolyzed by MTH1. MTH1 and these triphosphate derivatives were mixed and incubated at 37 °C for various times, and hydrolysis reactions were analyzed by HPLC. […] However, in the case of 7,8-dihalogenated triphosphate derivatives, the peak of the corresponding monophosphate was not detected in HPLC following the treatment with MTH1 (Figure 2. 9: purple, 10: red and 11: blue lines).
The reaction mixture was pre-incubated at 37 °C for 10 min before the addition of MTH1 to a final volume of 100 L (final concentration: 20 mM Tris-HCl, pH 7.5, 4 mM MgCl2, 40 mM NaCl, […] bovine serum albumin (BSA), 8 mM dithiothreitol (DTT), 10% glycerol; 0.5 pmol MTH1; 50 μM 7,8-dihalogenated-7-deaza-dGTP […], 8-CF3-7-deaza-dGTP (4), and 8-oxo-dGTP). The resulting solutions were incubated at 37 °C for various times and quenched with 100 μL of stop solution (5 mM EDTA). All samples were loaded on ice before the analysis with HPLC (HPLC conditions: A: 0.1 M TEAA, B: CH3CN; Flow rate: 1.0 mL/min; Shiseido MG1 (4.6 × 250 mm); UV detector: 254 nm; column oven: 35 °C).
Figure 2 Time courses of the hydrolysis of 8-oxo-dGTP, 7-deaza-dGTP, and 7,8-dihalogenated-7-deaza-dGTP (9, 10, and 11) by MTH1. Reaction conditions: 20 mM Tris-HCl pH 7.5, 4 mM MgCl2, 40 mM NaCl, 80 μg/mL bovine serum albumin (BSA), 8 mM dithiothreitol (DTT), 10% glycerol; 50 μM 8-oxo-dGTP, 5 nM MTH1; 50 μM dNTPs; incubated at 37 °C for various times. Hydrolysis reactions were analyzed by HPLC, and the cleavage rate was calculated from the peak area.

[2] = target: T1, MTH1; assay: Inhibition of the MTH1 hydrolysis of 8-oxo-dGTP (HPLC); format: biochemical; conditions: 50 μM 8-oxo-dGTP, 5 nM MTH1, pH 7.5, 37 °C, 10 min
Experimental: We examined whether the nucleoside diols, nucleoside monophosphate (NMP), and nucleoside triphosphate (NTP) derivatives inhibit the MTH1 hydrolysis of 8-oxo-dGTP. MTH1 and 8-oxo-dGTP were mixed with various concentrations of synthesized derivatives, and this mixture was incubated and analyzed by HPLC. In the case of diol compounds, 7,8-dichloro-7-deaza-dG (1), 7,8-dibromo-7-deaza-dG (2), and 7,8-diiodo-7-deaza-dG (3) exerted inhibitory effects on the hydrolytic activity of MHT1 at a micromolar level (Table 1, Entries 1–3). Their IC50 values were better than that of 8-iodo-7-deaza-dG (4) (Table 1, Entry 4).
Twenty microliters of MTH1 buffer (100 mM Tris-HCl, pH 7.5, 20 mM MgCl2, 200 mM NaCl, […] BSA, 40 mM DTT, and 50% glycerol), 10 μL (500 μM) of 8-oxo-dGTP, 55 μL of MilliQ, and 10 μL of various concentrations of substituted 7-deaza-dG derivatives were pre-incubated at 37 °C for 10 min (concentrations used: 7-deaza-dG, 7,8-dihalogenated-7-deaza-dG were 0, 0.5, 1, 2.5, 5, 10, 25, 50, 100, and 250 μM in 1% DMSO; 8-CF3-7-deazadGMP (3) was 0, 0.05, 0.1, 0.25, 0.5, 1, 2.5, 5, 10, and 25 μM; 7,8-dihalogenated-7-deaza-dGMP and –dGTP were 0, 0.0125, 0.025, 0.05, 0.1, 0.25, 0.5, 1, and 2.5 μM). Five microliters of MTH1 (0.1 pmol/μL in MTH1 buffer) was added, and the reaction mixture was incubated at 37 °C for 10 min. The resulting solutions were quenched with 100 μL of stop solution (5 mM EDTA). All samples were loaded on ice before the analysis with HPLC (HPLC conditions: A: 0.1 M TEAA, B: MeCN; Flow rate: 1.0 mL/min; Shiseido MG1 (4.6 × 250 mm); UV detector: 254 nm; 35 °C). The relative hydrolysis ratio values (ratio with inhibitor/ratio without inhibitor) were plotted at each inhibitor concentration. IC50 values were assessed using images.

[3] = target: T1, MTH1; assay: Steady-state kinetics of MTH1 hydrolysis of 8-oxo-dGTP (Lineweaver-Burk plot); format: biochemical; conditions: 2 nM MTH1, 37 °C
Excerpt: We made a Lineweaver-Burk plot to calculate kinetic parameters (KM and kcat) in order to reveal the types of inhibition modes for MTH1. […] In the presence of new 7-deaza-dG monophosphate and triphosphate, kcat values were only slightly altered (Entries 2–7). On the other hand, all KM values increased (Entries 2–7).

[4] = target: T1, MTH1; parameters: method as in earlier work; conditions: inhibition of the hydrolytic activity of MTH1; ChemBioChem 17, 566 (2016); cited from earlier work
[5] = target: T1, MTH1; parameters: method as in doi:10.1016/j.tet.2014.01.047, PMID 26879218, PMID 27372838; conditions: earlier work of the authors; cited from earlier work
[6] = 8-oxo-dGTP hydrolysis in the presence of inhibitor, 10–250 μM 8-oxo-dGTP
[7] = substrate 8-oxo-dGTP, in the absence of inhibitors

| Compound | Hydrolysis to the monophosphate by MTH1 [1] | IC50 [2] | kcat [3, 6] | Ki ([3]; 10–250 μM 8-oxo-dGTP) | further results |
| --- | --- | --- | --- | --- | --- |
| Nc1nc2c(c(Cl)c(Cl)n2[C@H]2C[C@H](O)[C@@H](COP(=O)(O)OP(=O)(O)OP(=O)(O)O)O2)c(=O)[nH]1 [Compound 9, 7,8-di-Chloro-7-deaza-2′-deoxy-guanosine triphosphate] | not detected | 160 nM | 9.3 s⁻¹ | 28.1 nM |  |
| CNc1cc(-c2cccc(Cl)c2Cl)nc(N)n1 [TH287, reference compound] |  |  |  |  | IC50 [4]: 10 nM |
| CC(=O)OC[C@H]1O[C@@H](n2ccc3c(=O)[nH]c(N)nc32)C[C@@H]1OC(C)=O [Compound 13, 3′,5′-di-O-Acetyl-7-deaza-2′-deoxyguanosine] | not hydrolyzed |  |  |  |  |
| Nc1nc2c(cc(I)n2[C@H]2C[C@H](O)[C@@H](COP(=O)(O)OP(=O)(O)OP(=O)(O)O)O2)c(=O)[nH]1 [Compound 12, 8-iodo-7-deaza-dGTP] |  |  |  |  | IC50 [4]: 420 nM; Ki [5]: 61.7 nM |
| Nc1nc2c(c(Br)c(Br)n2[C@H]2C[C@H](O)[C@@H](COP(=O)(O)OP(=O)(O)OP(=O)(O)O)O2)c(=O)[nH]1 [Compound 10, 7,8-di-Bromo-7-deaza-2′-deoxy-guanosine triphosphate] | not detected; also recorded: not hydrolyzed | 110 nM | 9.4 s⁻¹ | 24.2 nM |  |
| Nc1nc2c(c(Cl)c(Cl)n2[C@H]2C[C@H](O)[C@@H](COP(=O)(O)O)O2)c(=O)[nH]1 [Compound 5, 7,8-di-Chloro-7-deaza-2′-deoxy-guanosine monophosphate] |  | 130 nM | 9.7 s⁻¹ | 37 nM |  |
| Nc1nc2c(ccn2[C@H]2C[C@H](O)[C@@H](COP(=O)(O)OP(=O)(O)OP(=O)(O)O)O2)c(=O)[nH]1 [Compound 7-deaza-dGTP, 7-deaza-dGTP, reference compound] | hydrolyzed, but more slowly than 8-oxo-dGTP |  |  |  |  |
| Nc1nc2c(c(Br)c(Br)n2[C@H]2C[C@H](O)[C@@H](COP(=O)(O)O)O2)c(=O)[nH]1 [Compound 6, 7,8-di-Bromo-7-deaza-2′-deoxy-guanosine monophosphate] |  | 260 nM | 9.1 s⁻¹ | 27.9 nM |  |
| Nc1nc2c(cc(I)n2[C@H]2C[C@H](O)[C@@H](CO)O2)c(=O)[nH]1 [Compound 4, 8-iodo-7-deaza-dG] |  |  |  |  | IC50 [4]: 44800 nM |
| Nc1nc2c(c(I)c(I)n2[C@H]2C[C@H](O)[C@@H](COP(=O)(O)O)O2)c(=O)[nH]1 [Compound 7, 7,8-di-Iodo-7-deaza-2′-deoxy-guanosine monophosphate] | not hydrolyzed | 130 nM | 10.7 s⁻¹ |  |  |
| Nc1nc2c(c(I)c(I)n2[C@H]2C[C@H](O)[C@@H](COP(=O)(O)OP(=O)(O)OP(=O)(O)O)O2)c(=O)[nH]1 [Compound 11, 7,8-di-Iodo-7-deaza-2′-deoxy-guanosine triphosphate] | not detected | 130 nM | 11.9 s⁻¹ | 30.4 nM |  |
| Nc1nc2c(c(Br)c(Br)n2[C@H]2C[C@H](O)[C@@H](CO)O2)c(=O)[nH]1 [Compound 2, 7,8-di-Bromo-7-deaza-2′-deoxy-guanosine] |  | 10700 nM |  |  |  |
| NC1=NC(=O)C2=NC(=O)N([C@H]3C[C@H](O)[C@@H](COP(=O)(O)OP(=O)(O)OP(=O)(O)O)O3)C2=N1 [Compound 8-oxo-dGTP, 8-oxo-2′-deoxyguanosine-5′-triphosphate, reference compound] | rapidly hydrolyzed |  |  |  | Km [3, 7]: 17.6 µM; kcat [3, 7]: 10.6 s⁻¹ |
| Nc1nc2c(c(Cl)c(Cl)n2[C@H]2C[C@H](O)[C@@H](CO)O2)c(=O)[nH]1 [Compound 1, 7,8-di-Chloro-7-deaza-2′-deoxy-guanosine] |  | 22500 nM |  |  |  |
| Nc1nc2c(cc(I)n2[C@H]2C[C@H](O)[C@@H](COP(=O)(O)O)O2)c(=O)[nH]1 [Compound 8, 8-Iodo-7-deaza-2′-deoxy-guanosine monophosphate] |  | 840 nM |  |  |  |
| Nc1nc2c(c(I)c(I)n2[C@H]2C[C@H](O)[C@@H](CO)O2)c(=O)[nH]1 [Compound 3, 7,8-di-Iodo-7-deaza-2′-deoxy-guanosine] |  | 17000 nM |  |  |  |
